From ChEMBL document CHEMBL5653631, “A Potent and Selective ULK1 Inhibitor Suppresses Autophagy and Sensitizes Cancer Cells to Nutrient Stress” (iScience, 2018)

Tests used:
[1] = target: T1, Cytoplasmic tyrosine-protein kinase BMX (Homo sapiens) (UniProt P51813); assay: Inhibition of human recombinant BMX at 500 nM related to control ULK1
T1 sequence (whole entry): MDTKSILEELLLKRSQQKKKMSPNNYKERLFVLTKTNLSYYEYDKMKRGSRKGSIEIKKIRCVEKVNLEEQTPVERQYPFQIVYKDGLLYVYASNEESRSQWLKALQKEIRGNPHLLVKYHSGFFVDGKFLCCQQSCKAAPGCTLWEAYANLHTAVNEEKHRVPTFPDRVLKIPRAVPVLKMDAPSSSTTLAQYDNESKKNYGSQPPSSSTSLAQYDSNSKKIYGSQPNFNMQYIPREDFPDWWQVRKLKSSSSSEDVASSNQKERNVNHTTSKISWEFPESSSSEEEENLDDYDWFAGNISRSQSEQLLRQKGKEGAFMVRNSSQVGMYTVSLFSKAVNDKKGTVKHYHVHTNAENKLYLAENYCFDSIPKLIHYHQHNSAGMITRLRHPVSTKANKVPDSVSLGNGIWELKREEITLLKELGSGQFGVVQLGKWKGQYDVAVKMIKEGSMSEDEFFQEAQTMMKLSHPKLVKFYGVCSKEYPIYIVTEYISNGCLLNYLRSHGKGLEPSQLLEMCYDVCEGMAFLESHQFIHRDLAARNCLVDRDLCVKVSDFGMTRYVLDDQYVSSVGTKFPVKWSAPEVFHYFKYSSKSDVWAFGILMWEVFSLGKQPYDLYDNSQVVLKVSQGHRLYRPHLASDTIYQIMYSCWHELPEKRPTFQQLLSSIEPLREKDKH

[2] = target: Ribosomal protein S6 kinase alpha-1 (Homo sapiens) (UniProt Q15418); assay: Inhibition of human recombinant RSK1 at 500 nM in presence of ATP by radiometric assay relative to control
[3] = target: Epithelial discoidin domain-containing receptor 1 (Homo sapiens) (UniProt Q08345); assay: Inhibition of human recombinant DDR1 at 500 nM in presence of ATP by radiometric assay relative to control
[4] = target: Serine/threonine-protein kinase PAK 5 (Homo sapiens) (UniProt Q9P286); assay: Inhibition of human recombinant PAK5 at 500 nM in presence of ATP by radiometric assay relative to control
[5] = target: T2, cGMP-dependent protein kinase 2 (Homo sapiens) (UniProt Q13237); assay: Inhibition of human recombinant PKG2 at 15 nM in presence of ATP by radiometric assay relative to control
T2 sequence (whole entry): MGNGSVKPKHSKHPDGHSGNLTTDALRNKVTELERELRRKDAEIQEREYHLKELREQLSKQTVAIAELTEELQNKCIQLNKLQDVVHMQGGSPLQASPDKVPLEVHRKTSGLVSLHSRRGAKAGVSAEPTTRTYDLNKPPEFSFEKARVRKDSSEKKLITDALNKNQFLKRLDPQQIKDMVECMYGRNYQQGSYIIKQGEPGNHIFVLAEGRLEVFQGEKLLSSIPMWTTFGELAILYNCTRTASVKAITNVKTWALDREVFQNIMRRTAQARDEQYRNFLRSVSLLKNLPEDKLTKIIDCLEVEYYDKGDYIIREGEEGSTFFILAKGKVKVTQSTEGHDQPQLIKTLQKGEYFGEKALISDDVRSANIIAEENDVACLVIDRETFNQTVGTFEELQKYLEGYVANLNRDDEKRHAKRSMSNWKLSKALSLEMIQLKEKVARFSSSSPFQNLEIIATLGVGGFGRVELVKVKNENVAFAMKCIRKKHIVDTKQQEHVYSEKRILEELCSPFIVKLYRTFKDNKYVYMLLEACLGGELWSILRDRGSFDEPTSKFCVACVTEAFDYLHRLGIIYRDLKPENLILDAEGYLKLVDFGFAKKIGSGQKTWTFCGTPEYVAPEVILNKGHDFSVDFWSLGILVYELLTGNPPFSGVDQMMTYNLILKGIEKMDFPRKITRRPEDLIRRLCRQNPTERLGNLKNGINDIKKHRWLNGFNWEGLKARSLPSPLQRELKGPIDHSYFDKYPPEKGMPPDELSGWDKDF

[6] = target: T3, Mitogen-activated protein kinase 13 (Homo sapiens) (UniProt O15264); assay: Inhibition of human recombinant p38delta at 40 nM in presence of ATP by radiometric assay relative to control
T3 sequence (whole entry): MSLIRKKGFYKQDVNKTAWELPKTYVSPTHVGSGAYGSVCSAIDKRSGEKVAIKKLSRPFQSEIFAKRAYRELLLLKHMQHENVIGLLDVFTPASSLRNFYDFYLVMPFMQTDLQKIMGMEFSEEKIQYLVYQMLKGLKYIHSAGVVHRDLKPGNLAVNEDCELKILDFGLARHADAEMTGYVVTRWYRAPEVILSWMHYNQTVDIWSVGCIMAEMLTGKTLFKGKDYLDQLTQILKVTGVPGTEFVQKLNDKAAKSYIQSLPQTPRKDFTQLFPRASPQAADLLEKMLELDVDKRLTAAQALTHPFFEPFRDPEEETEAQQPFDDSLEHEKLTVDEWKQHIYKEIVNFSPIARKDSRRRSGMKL

Sequence of Epithelial discoidin domain-containing receptor 1 (Homo sapiens) (Q08345 whole entry, the tested form may be a part): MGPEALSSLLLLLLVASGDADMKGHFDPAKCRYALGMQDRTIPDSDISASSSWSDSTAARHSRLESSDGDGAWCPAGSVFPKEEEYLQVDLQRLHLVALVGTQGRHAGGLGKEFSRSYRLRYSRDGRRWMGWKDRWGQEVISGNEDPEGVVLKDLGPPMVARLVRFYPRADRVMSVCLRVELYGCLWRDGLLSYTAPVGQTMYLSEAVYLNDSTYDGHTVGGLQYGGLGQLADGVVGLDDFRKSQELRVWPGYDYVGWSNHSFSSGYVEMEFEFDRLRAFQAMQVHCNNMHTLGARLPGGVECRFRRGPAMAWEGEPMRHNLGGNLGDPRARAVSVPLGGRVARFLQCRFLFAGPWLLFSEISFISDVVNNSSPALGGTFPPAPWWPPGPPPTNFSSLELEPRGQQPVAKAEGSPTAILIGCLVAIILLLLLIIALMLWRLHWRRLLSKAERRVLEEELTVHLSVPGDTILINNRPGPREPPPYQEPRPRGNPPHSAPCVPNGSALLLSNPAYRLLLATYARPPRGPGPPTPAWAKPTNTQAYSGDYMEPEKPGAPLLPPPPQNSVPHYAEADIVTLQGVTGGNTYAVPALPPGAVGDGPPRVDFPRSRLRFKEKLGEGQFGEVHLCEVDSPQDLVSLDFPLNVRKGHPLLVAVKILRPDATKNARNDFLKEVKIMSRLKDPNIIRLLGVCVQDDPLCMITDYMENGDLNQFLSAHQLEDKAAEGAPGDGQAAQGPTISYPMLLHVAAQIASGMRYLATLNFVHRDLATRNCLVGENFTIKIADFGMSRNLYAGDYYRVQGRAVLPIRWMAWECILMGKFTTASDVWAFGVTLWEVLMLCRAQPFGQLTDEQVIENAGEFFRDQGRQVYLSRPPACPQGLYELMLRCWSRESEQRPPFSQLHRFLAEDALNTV
Sequence of Ribosomal protein S6 kinase alpha-1 (Homo sapiens) (Q15418 whole entry, the tested form may be a part): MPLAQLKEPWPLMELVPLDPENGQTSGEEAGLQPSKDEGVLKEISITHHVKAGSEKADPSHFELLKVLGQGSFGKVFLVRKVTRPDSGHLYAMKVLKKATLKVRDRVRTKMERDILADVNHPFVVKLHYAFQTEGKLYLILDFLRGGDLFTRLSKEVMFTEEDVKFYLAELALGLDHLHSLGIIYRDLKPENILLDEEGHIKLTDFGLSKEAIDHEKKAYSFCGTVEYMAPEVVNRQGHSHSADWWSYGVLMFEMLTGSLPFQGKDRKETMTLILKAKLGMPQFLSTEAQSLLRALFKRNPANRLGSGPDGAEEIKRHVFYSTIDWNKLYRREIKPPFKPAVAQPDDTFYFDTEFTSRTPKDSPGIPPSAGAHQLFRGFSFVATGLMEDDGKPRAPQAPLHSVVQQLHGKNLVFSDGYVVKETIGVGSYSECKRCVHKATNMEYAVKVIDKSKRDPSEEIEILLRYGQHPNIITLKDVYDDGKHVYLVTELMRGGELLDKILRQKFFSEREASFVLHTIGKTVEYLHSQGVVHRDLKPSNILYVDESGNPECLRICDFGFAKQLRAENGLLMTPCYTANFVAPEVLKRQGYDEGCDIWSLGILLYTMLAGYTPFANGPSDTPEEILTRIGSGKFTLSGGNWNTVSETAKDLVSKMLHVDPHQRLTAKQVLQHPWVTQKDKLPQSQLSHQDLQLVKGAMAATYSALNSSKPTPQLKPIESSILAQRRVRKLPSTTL
Sequence of Serine/threonine-protein kinase PAK 5 (Homo sapiens) (Q9P286 whole entry, looked up): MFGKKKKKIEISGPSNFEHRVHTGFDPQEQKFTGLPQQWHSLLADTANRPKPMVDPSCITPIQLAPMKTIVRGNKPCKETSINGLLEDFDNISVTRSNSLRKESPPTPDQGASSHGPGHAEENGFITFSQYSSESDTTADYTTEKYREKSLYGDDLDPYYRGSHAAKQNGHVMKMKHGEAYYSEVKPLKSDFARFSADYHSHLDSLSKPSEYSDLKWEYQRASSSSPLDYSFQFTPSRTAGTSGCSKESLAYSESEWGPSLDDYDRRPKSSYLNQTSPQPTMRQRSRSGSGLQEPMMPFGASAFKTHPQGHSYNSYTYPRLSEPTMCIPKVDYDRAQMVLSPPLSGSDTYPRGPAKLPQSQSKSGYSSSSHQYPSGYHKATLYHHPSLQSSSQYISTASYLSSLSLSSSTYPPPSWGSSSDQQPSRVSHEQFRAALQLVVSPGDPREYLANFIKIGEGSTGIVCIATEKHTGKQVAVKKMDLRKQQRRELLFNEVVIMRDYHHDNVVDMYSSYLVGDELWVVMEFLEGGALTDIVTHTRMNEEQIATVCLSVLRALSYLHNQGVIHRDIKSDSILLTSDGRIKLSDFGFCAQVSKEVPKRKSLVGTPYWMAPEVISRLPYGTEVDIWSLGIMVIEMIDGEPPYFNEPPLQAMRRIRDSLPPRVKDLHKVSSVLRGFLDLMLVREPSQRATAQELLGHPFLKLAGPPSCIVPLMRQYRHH

Compound: CNC(=O)c1ccccc1Oc1nc(Nc2cc(OC)c(OC)c(OC)c2)ncc1Br
- fold change (FC) [1]: 0.22
- inhibition [2]: 19%
- inhibition [3]: 47%
- inhibition [4]: 5%

Compound: CC(C)[C@H](NC(=O)c1cc(-c2cnn3cc(-c4ccc(OCCN5CCCCC5)cc4)cnc23)cs1)C(F)(F)F
- inhibition [5]: 4%

Compound: O=C(N[C@@H](C1CC1)C(F)(F)F)c1cc(-c2cnn3cc(-c4ccc(F)cc4)cnc23)cs1
- inhibition [6]: 12%
